In patent US20240279278A1, “NMU RECEPTOR 2 AGONISTS” (Boehringer Ingelheim International GmbH, priority 2023, published 2024):
Residues, ends and D or L forms follow the SMILES beside them.

How the values were obtained:
human NMUR1 receptor = molecular target: T1, human NMUR1 receptor (Homo sapiens, UniProt Q9HB89); experiment: Radioligand binding competition assay (RLB), human NMUR1 receptor binding (SPA, [125I]-Neuromedin U-25); settings: CHO-K1 hNMUR1 cell membranes, 4 hours at RT
T1 construct: host or cells: CHO-K1
T1 sequence (Q9HB89 24-426 limits assumed): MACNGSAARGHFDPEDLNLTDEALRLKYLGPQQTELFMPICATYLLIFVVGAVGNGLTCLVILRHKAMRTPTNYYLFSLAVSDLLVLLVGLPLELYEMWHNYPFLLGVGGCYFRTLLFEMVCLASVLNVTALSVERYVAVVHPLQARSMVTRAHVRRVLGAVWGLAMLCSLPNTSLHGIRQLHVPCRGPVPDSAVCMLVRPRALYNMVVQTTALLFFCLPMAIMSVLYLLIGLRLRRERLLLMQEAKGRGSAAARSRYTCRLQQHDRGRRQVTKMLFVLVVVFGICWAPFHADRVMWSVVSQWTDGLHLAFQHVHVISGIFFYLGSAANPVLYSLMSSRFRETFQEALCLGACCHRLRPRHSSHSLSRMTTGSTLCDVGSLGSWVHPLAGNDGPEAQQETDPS
From the text: Example 2: Radioligand Binding Competition Assay (RLB) Human NMUR1 Receptor Binding 1) Membranes The test is based on membranes prepared from a human NMUR1/Apoaequorin Stable Cell Line (Creative Biogene, Cat. No. CSC-RG1308). Cell Line Description: CHO-NMUR1 cell line is clonally-derived from a CHO-K1 cell line, which has been transfected with a bicistronic expression plasmid containing the sequence coding for the human neuromedin U receptor 1 (NM_006056.4, 180 to 1391). Mosaic-ID: CL16550614 Membrane preparation: Cells were broken by nitrogen cavitation (900 psi, 1 hour). Intact cells were removed by centrifugation (400 rcf, 10 minutes, 4° C.) before the crude membrane fraction was collected by ultracentrifugation (20.000 rcf, 1 hour, 4° C.). 2) Human NMUR1 Receptor Binding Assay (Radioligand: [125l]-Neuromedin U-25) In this Scintillation Proximity Assay (SPA) design, the membranes immobilize directly to the PVT-WGA-PEI type A beads (polyethyleneimine treated polyvinyltoluene beads coupled to wheatgerm agglutinin, Perkin Elmer) via interactions of wheat germ agglutinate and glycosylated membrane structures. Thereby the radioactively la-belled ligand, bound to NMUR1 receptors on the membrane, comes in close proximity to the solid scintillator of the PVT bead. Radioactive human neuromedin U-25 then stimulates the scintillant to emit light. In contrast, radioligand not bound to the receptor is too distant from the bead to elicit a signal. For the Scintillation Proximity Assay the CHO-K1 hNMUR1 cell membranes and SPA-beads are diluted to concentrations, which assure a robust signal to background ratio. The SPA incubation buffer consists of 25 mM Hepes (pH=7.0), 5 mM MgCl2, 1 mM CaCl2, 10 ug/mL Saponine and 0.1% bovine serum albumin and is used for all dilutions. Final assay setup in 96-well plate: 20 μL of 10× test compound dilutions+40 μL of 5× [125l]-Neuromedin U-25 (1× approx. 30 pM; 2000 μCi/mmol (μCi=microcurie))+60 μL membrane dilution (approx. 1.0 μg membrane protein)+80 μL SPA bead dilution (250 μg). The assay is incubated for 4 hours at RT, including controls for specific binding where no displacer is added and non-specific binding by adding unlabeled hNMU-25 at 100 nM. Bound radioactivity is determined by scintillation counting (MicroBeta Trilux 1450, Perkin Elmer, detection of 125I decay). […] The system assumes one binding site with no relevant radioligand depletion (<10%) and that the binding is reversible and at equilibrium. [formula] [formula]

human NMUR2 receptor = human NMUR2 receptor (Homo sapiens, UniProt Q9GZQ4); experiment: Radioligand binding competition assay (RLB), human NMUR2 receptor binding (SPA, [125I]-Neuromedin U-25); design: host or cells: CHO-K1; settings: CHO-K1 hNMUR2 cell membranes, 4 hours at RT
Chain of human NMUR2 receptor (Q9GZQ4 whole entry): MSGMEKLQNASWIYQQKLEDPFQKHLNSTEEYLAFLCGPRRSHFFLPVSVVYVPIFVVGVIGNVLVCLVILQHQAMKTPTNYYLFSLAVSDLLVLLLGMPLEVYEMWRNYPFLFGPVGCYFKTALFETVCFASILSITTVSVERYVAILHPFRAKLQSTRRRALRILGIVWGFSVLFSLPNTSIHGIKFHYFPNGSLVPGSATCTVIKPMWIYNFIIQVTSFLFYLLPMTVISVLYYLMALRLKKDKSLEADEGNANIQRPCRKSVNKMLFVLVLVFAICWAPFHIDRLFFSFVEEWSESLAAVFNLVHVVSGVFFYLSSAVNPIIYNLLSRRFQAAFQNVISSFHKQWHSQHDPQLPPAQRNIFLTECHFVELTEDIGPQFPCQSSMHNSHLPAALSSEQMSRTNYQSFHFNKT
From the text: Example 1: Radioligand Binding Competition Assay (RLB) Human NMUR2 Receptor Binding
The test is based on membranes prepared from a Human NMUR2/Apoaequorin Stable Cell Line (Creative Biogene, Cat. No. CSC-RG1309).
Cell Line Description: CHO-NMUR2 cell line is clonally derived from a CHO-K1 cell line, which has been transfected with a bicistronic expression plasmid containing the sequence coding for the human neuromedin U receptor 2 (AF242874.1). MOSAIC-ID: CL16550616.
Membrane preparation: Cells were broken by nitrogen cavitation (900 psi, 1 hour). Intact cells were removed by centrifugation (400 rcf (relative centrifugal force), 10 minutes, 4° C.) before the crude membrane fraction was collected by ultracentrifugation (20.000 rcf, 1 hour, 4° C.).
2) Human NMUR2 Receptor Binding Assay (Radioligand: [125I]-Neuromedin U-25 (Human))
In this Scintillation Proximity Assay (SPA) design, the membranes immobilize directly to the PVT-WGA-PEI type A beads (polyethyleneimine treated polyvinyltoluene beads coupled to wheatgerm agglutinin, Perkin Elmer) via interactions of wheat germ agglutinate and glycosylated membrane structures. Thereby the radioactively la-belled ligand, bound to NMUR2 receptors on the membrane, comes in close proximity to the solid scintillator of the PVT bead. Radioactive human neuromedin U-25 then stimulates the scintillant to emit light. In contrast, radioligand not bound to the receptor is too distant from the bead to elicit a signal.
For the Scintillation Proximity Assay the CHO-K1 hNMUR2 cell membranes and SPA-beads are diluted to concentrations, which assure a robust signal to background ratio. The SPA incubation buffer consists of 25 mM Hepes (pH=7.0), 5 mM MgCl2, 1 mM CaCl2, 10 ug/mL Saponine and 0.1% bovine serum albumin and is used for all dilutions.
Final assay setup in 96-well plate: 20 μL of 10× test compound dilutions+40 μL of 5× [125l]-Neuromedin U-25 (1× approx. 30 pM; 2000 μCi/mmol)+60 μL membrane dilution (approx. 2.5 μg membrane protein)+80 μL SPA bead dilution (0.75 mg).
The assay is incubated for 4 hours at RT, including controls for specific binding where no displacer is added and non-specific binding by adding unlabeled hNMU-25 at 100 nM. Bound radioactivity is determined by scintillation counting (MicroBeta Trilux 1450, Perkin Elmer, detection of 125I decay). […] The system assumes one binding site with no relevant radioligand depletion (<10%) and that the binding is reversible and at equilibrium.

SMILES	Ki (human NMUR1 receptor) [nM]	Ki (human NMUR2 receptor) [nM]
CCCC[C@H](NC(=O)[C@H](CC(C)C)N(C)C(=O)[C@H](Cc1ccccc1)NC(=O)[C@H](Cc1ccc(O)cc1)NC(=O)CN1CCN(CCNC(=O)CN(C)C(=O)CN(C)C(=O)CN(C)C(=O)CN(C)C(=O)CN(C)C(=O)CN(C)C(=O)CN(C)C(=O)CN(C)C(=O)CN(C)C(=O)CN(C)C(=O)CN(C)C(=O)CN(C)C(=O)CN(C)C(=O)CN(C)C(=O)CN(C)C(=O)CC[C@H](NC(=O)CC[C@H](NC(=O)CC[C@H](NC(=O)CCCCCCCCCCCCCCCCCCC(=O)O)C(=O)O)C(=O)O)C(=O)O)CC1)C(=O)N[C@@H](CCCNC(=N)N)C(=O)N1CCC[C@H]1C(=O)N[C@@H](CCCNC(=N)N)C(=O)NCC(N)=O [Compound 9, C20DA-gGlu3-Sar15-AEPipAc-Tyr-Phe-NMeLeu-Nle-Arg-Pro-Arg-Gly-NH2] (HELM PEPTIDE1{[O=C(O)CCCCCCCCCCCCCCCCCCC(=O)[*:2]].[gGlu].[gGlu].[gGlu].[Sar].[Sar].[Sar].[Sar].[Sar].[Sar].[Sar].[Sar].[Sar].[Sar].[Sar].[Sar].[Sar].[Sar].[Sar].[O=C(CN1CCN(CCN[*:1])CC1)[*:2]].Y.F.[meL].[Nle].R.P.R.G.[am]}$$$$V2.0)	> 10000	58.3
CCCC[C@H](NC(=O)[C@H](CC(C)C)N(C)C(=O)[C@H](Cc1ccccc1)NC(=O)[C@H](Cc1ccc(O)cc1)NC(=O)CN1CCN(CCNC(=O)CN(C)C(=O)CN(C)C(=O)CN(C)C(=O)CN(C)C(=O)CN(C)C(=O)CN(C)C(=O)CN(C)C(=O)CN(C)C(=O)CN(C)C(=O)CN(C)C(=O)CN(C)C(=O)CN(C)C(=O)CN(C)C(=O)CN(C)C(=O)CN(C)C(=O)CC[C@H](NC(=O)CC[C@H](NC(=O)CC[C@H](NC(=O)CCCCCCCCCCCCCCCCCCC(=O)O)C(=O)O)C(=O)O)C(=O)O)CC1)C(=O)N[C@@H](CCCNC(=N)N)C(=O)N(C)[C@@H](C)C(=O)N[C@@H](CCCNC(=N)N)C(=O)NCC(N)=O [Compound 10, C20DA-gGlu3-Sar15-AEPipAc-Tyr-Phe-NMeLeu-Nle-Arg-NMeAla-Arg-Gly-NH2] (HELM PEPTIDE1{[O=C(O)CCCCCCCCCCCCCCCCCCC(=O)[*:2]].[gGlu].[gGlu].[gGlu].[Sar].[Sar].[Sar].[Sar].[Sar].[Sar].[Sar].[Sar].[Sar].[Sar].[Sar].[Sar].[Sar].[Sar].[Sar].[O=C(CN1CCN(CCN[*:1])CC1)[*:2]].Y.F.[meL].[Nle].R.[meA].R.G.[am]}$$$$V2.0)	> 10000	204
CCCC[C@H](NC(=O)[C@H](CC(C)C)N(C)C(=O)[C@H](Cc1ccccc1)NC(=O)[C@H](Cc1ccc(O)cc1)NC(=O)CN1CCN(CCNC(=O)CN(C)C(=O)CN(C)C(=O)CN(C)C(=O)CN(C)C(=O)CN(C)C(=O)CN(C)C(=O)CN(C)C(=O)CN(C)C(=O)CN(C)C(=O)CN(C)C(=O)CN(C)C(=O)CN(C)C(=O)CN(C)C(=O)CN(C)C(=O)CN(C)C(=O)CC[C@H](NC(=O)CC[C@H](NC(=O)CC[C@H](NC(=O)CCCCCCCCCCCCCCCCC(=O)O)C(=O)O)C(=O)O)C(=O)O)CC1)C(=O)N[C@@H](CCCNC(=N)N)C(=O)N(C)[C@@H](C)C(=O)N[C@@H](CCCNC(=N)N)C(=O)NCC(N)=O [Compound 11, C18DA-gGlu3-Sar15-AEPipAc-Tyr-Phe-NMeLeu-Nle-Arg-NMeAla-Arg-Gly-NH2] (HELM PEPTIDE1{[O=C(O)CCCCCCCCCCCCCCCCC(=O)[*:2]].[gGlu].[gGlu].[gGlu].[Sar].[Sar].[Sar].[Sar].[Sar].[Sar].[Sar].[Sar].[Sar].[Sar].[Sar].[Sar].[Sar].[Sar].[Sar].[O=C(CN1CCN(CCN[*:1])CC1)[*:2]].Y.F.[meL].[Nle].R.[meA].R.G.[am]}$$$$V2.0)	> 10000	76.3
CCCC[C@H](NC(=O)[C@H](CC(C)C)N(C)C(=O)[C@H](Cc1ccccc1)NC(=O)[C@H](Cc1ccc(O)cc1)NC(=O)CN1CCN(CCNC(=O)CN(C)C(=O)CN(C)C(=O)CN(C)C(=O)CN(C)C(=O)CN(C)C(=O)CN(C)C(=O)CN(C)C(=O)CN(C)C(=O)CN(C)C(=O)CN(C)C(=O)CN(C)C(=O)CN(C)C(=O)CC[C@H](NC(=O)CC[C@H](NC(=O)CC[C@H](NC(=O)CCCCCCCCCCCCCCCCC(=O)O)C(=O)O)C(=O)O)C(=O)O)CC1)C(=O)N[C@@H](CCCNC(=N)N)C(=O)N(C)[C@@H](C)C(=O)N[C@@H](CCCNC(=N)N)C(=O)NCC(N)=O [Compound 12, C18DA-gGlu3-Sar12-AEPipAc-Tyr-Phe-NMeLeu-Nle-Arg-NMeAla-Arg-Gly-NH2]	> 10000	36.2
CCCC[C@H](NC(=O)[C@H](CC(C)C)N(C)C(=O)[C@H](Cc1ccccc1)NC(=O)[C@H](Cc1ccc(O)cc1)NC(=O)CN1CCN(CCNC(=O)CN(C)C(=O)CN(C)C(=O)CN(C)C(=O)CN(C)C(=O)CN(C)C(=O)CN(C)C(=O)CN(C)C(=O)CN(C)C(=O)CN(C)C(=O)CC[C@H](NC(=O)CC[C@H](NC(=O)CC[C@H](NC(=O)CCCCCCCCCCCCCCCCCCC(=O)O)C(=O)O)C(=O)O)C(=O)O)CC1)C(=O)N[C@@H](CCCNC(=N)N)C(=O)N1CCC[C@H]1C(=O)N[C@@H](CCCNC(=N)N)C(=O)NCC(N)=O [Compound 65, C20DA-gGlu3-Sar9-AEPipAc-Tyr-Phe-NMeLeu-Nle-Arg-Pro-Arg-Gly-NH2] (HELM PEPTIDE1{[O=C(O)CCCCCCCCCCCCCCCCCCC(=O)[*:2]].[gGlu].[gGlu].[gGlu].[Sar].[Sar].[Sar].[Sar].[Sar].[Sar].[Sar].[Sar].[Sar].[O=C(CN1CCN(CCN[*:1])CC1)[*:2]].Y.F.[meL].[Nle].R.P.R.G.[am]}$$$$V2.0)	722	25.3
